MIC90, EC50 and inhibition data for 33 compounds are collected here from ChEMBL document CHEMBL4732038 (RSC Med Chem, 2021).

In brackets after ≈: the same amount, converted by molar mass.

Experiment [1] deals with Mycobacterium tuberculosis. Description: Antitubercular activity against Mycobacterium tuberculosis H37Rv assessed as bacterial growth inhibition incubated for 5 days by resazurin microtiter assay. It is filed as functional. The conditions noted are these: 120 h, time 5 day.
The target in experiment [2] is Voltage-gated inwardly rectifying potassium channel KCNH2 (Homo sapiens, UniProt Q12809). Description: Inhibition of fluorescently labelled tracer binding to human ERG by competitive binding assay.
Experiment [3] has as its system Mycobacterium tuberculosis. Description: Antitubercular activity against Mycobacterium tuberculosis H37Rv assessed as bacterial growth inhibition at 1 uM incubated for 5 days by resazurin microtiter assay relative to control. It is filed as functional. Particulars: 120 h, time 5 day.
For experiment [4], the system named is Mycobacterium tuberculosis. Description: Antitubercular activity against Mycobacterium tuberculosis H37Rv assessed as bacterial growth inhibition at 10 uM incubated for 5 days by resazurin microtiter assay relative to control. Particulars: 120 h, time 5 day. It is filed as functional. (Alamar Blue is a resazurin reagent that responds to reducing activity.)

For experiment [5], the system named is Mycobacterium tuberculosis. Description: Antitubercular activity against Mycobacterium tuberculosis H37Rv by broth microdilution method. It is filed as functional. (In general: Dilution methods test growth across graded concentrations, often in twofold steps.)

In general, MIC90 refers to an inhibitory concentration at the 90% level, which refers to growth in some studies and to a panel of isolates in others. Usually EC50 stands for the concentration giving half of the maximal effect. Low values mean an effect from little substance, high ones a need for much substance. What is called inhibition is the relative decrease from the control value, in per cent.

Chain of Voltage-gated inwardly rectifying potassium channel KCNH2 (Q12809 whole entry): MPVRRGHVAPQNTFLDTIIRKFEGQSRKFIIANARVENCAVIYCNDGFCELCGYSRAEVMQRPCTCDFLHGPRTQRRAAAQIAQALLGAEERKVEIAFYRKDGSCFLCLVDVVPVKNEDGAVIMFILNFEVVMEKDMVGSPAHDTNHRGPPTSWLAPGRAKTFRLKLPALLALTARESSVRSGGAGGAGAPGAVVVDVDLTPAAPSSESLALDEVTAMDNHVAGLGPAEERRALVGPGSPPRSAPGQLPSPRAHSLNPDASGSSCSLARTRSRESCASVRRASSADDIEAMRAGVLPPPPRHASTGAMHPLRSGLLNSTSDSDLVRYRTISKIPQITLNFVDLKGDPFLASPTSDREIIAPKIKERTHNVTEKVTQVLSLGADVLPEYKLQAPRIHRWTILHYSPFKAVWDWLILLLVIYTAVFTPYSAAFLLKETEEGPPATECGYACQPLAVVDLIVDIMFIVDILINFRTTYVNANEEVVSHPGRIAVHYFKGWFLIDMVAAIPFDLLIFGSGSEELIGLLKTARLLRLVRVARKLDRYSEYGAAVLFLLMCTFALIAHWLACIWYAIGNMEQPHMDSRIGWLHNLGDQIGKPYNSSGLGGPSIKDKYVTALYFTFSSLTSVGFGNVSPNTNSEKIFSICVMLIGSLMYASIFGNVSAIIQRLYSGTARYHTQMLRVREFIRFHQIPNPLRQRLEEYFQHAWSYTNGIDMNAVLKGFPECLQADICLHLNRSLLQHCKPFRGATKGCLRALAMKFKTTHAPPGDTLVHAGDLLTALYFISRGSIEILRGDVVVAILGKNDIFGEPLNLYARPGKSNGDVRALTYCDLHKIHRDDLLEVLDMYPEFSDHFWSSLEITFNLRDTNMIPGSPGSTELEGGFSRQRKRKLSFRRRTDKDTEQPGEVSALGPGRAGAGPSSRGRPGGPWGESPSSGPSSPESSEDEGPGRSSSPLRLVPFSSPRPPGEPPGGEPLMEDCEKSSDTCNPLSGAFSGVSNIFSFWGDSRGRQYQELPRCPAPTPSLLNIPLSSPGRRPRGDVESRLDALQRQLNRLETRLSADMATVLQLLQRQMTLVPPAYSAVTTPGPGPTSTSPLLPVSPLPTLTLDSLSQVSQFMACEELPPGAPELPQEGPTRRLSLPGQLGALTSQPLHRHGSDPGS

For `COc1nc(OC)c([C@@H](c2ccccc2)[C@@](O)(CCN(C)C)c2cccc3ccccc23)cc1-c1ccc(C#N)cc1`, the MIC90 in experiment [1] turned out to be 1 µM (≈ 0.558 µg/mL). Moreover, the EC50 in experiment [2] worked out at 1520 nM.
Turning to `COc1ncc(-c2ccc(Cl)cc2)cc1C(c1ccccc1)C(O)(CCN(C)C)c1cccc2ccccc12` (configuration not stated), the inhibition at 1 µM in experiment [3] worked out at 5%. Also, the inhibition at 10 µM in experiment [4] is 100%. In addition, in experiment [1], the MIC90 is 6.94 µM (≈ 3.73 µg/mL).
Regarding `COc1ncc(-c2ccc(Cl)c(C(F)(F)F)c2)cc1C(c1ccccc1)C(O)(CCN(C)C)c1cccc2ccccc12` (configuration not stated), in experiment [3], the inhibition at 1 µM stood at 0%. Further, the inhibition at 10 µM in experiment [4] was found to be 100%.
Turning to `COc1nc(OC)c(C(c2ccccc2)C(O)(CCN(C)C)c2cccc3ccccc23)cc1-c1ccc(Cl)cc1` (configuration not stated), in experiment [1], the MIC90 is 3.44 µM (≈ 1.95 µg/mL).
On to `COc1ncc(-c2ccc(Cl)c(Cl)c2)cc1C(c1ccccc1)C(O)(CCN(C)C)c1cccc2ccccc12` (configuration not stated), for which the inhibition at 1 µM in experiment [3] stood at 0%. Moreover, in experiment [4], the inhibition at 10 µM is 100%.
The matching figures for `COc1ncc(-c2ccc(F)cc2C#N)cc1C(c1ccccc1)C(O)(CCN(C)C)c1cccc2ccccc12` (configuration not stated): 0% and 100%.
The matching figures for `COc1ncc(-c2ccc(Cl)cc2Cl)cc1C(c1ccccc1)C(O)(CCN(C)C)c1cccc2ccccc12` (configuration not stated): 0% and 100%.
Consider `COc1ncc(-c2ccc(F)c(Cl)c2)cc1C(c1ccccc1)C(O)(CCN(C)C)c1cccc2ccccc12` (configuration not stated), for which, in experiment [3], the inhibition at 1 µM is 0%. In addition, the inhibition at 10 µM in experiment [4] was 100%.
The like results for `COc1ncc(-c2ccccc2OC(F)(F)F)cc1C(c1ccccc1)C(O)(CCN(C)C)c1cccc2ccccc12` (configuration not stated) were, in that order, 0% and 100%.
With `COc1ncc(-c2ccc(F)cc2)cc1C(c1ccccc1)C(O)(CCN(C)C)c1cccc2ccccc12` (configuration not stated), the inhibition at 1 µM in experiment [3] turned out to be 100%. Moreover, the inhibition at 10 µM in experiment [4] came out at 100%. In addition, the MIC90 in experiment [1] worked out at 0.8 µM (≈ 0.417 µg/mL).
As for `COc1ncc(-c2ccc(OC(F)(F)F)cc2)cc1C(c1ccccc1)C(O)(CCN(C)C)c1cccc2ccccc12` (configuration not stated), the inhibition at 1 µM in experiment [3] is 10%. For the same compound, the inhibition at 10 µM in experiment [4] amounted to 100%. Further, the MIC90 in experiment [1] is 6.05 µM (≈ 3.55 µg/mL).
For `COc1ncc(-c2ccc(C(F)(F)F)cc2Cl)cc1C(c1ccccc1)C(O)(CCN(C)C)c1cccc2ccccc12` (configuration not stated), the inhibition at 1 µM in experiment [3] amounted to 5%. Besides, in experiment [4], the inhibition at 10 µM was determined as 100%.
Regarding `COc1ncc(-c2ccccc2)cc1C(c1ccccc1)C(O)(CCN(C)C)c1cccc2ccccc12` (configuration not stated), the inhibition at 1 µM in experiment [3] was found to be 10%. For the same compound, in experiment [4], the inhibition at 10 µM is 100%. The MIC90 in experiment [1] turned out to be 5.51 µM (≈ 2.77 µg/mL).
For the compound `COc1nc2ccc(Br)cc2cc1[C@@H](c1ccccc1)[C@@](O)(CCN(C)C)c1cccc2ccccc12` [BEDAQUILINE], the MIC90 was determined as 0.35 µM (≈ 0.194 µg/mL) in experiment [1] and 0.027 µM (≈ 0.015 µg/mL) in experiment [5].
Take `COc1ncc(-c2ccccc2Cl)cc1C(c1ccccc1)C(O)(CCN(C)C)c1cccc2ccccc12` (configuration not stated): in experiment [3], the inhibition at 1 µM came to 0%. In experiment [4], the inhibition at 10 µM was 100%. Further, the MIC90 in experiment [1] amounted to 4.52 µM (≈ 2.43 µg/mL).
Turning to `COc1ncc(-c2ccc(F)cc2F)cc1C(c1ccccc1)C(O)(CCN(C)C)c1cccc2ccccc12` (configuration not stated), the inhibition at 1 µM in experiment [3] was 0%. For the same compound, the inhibition at 10 µM in experiment [4] was determined as 100%.
With `COc1ccc(-c2cc(C(c3ccccc3)C(O)(CCN(C)C)c3cccc4ccccc34)c(OC)nc2OC)cc1` (configuration not stated), the MIC90 in experiment [1] stood at 3.94 µM (≈ 2.22 µg/mL).
The same measure, in the same setting: next, `COc1ncc(Br)cc1C(c1ccccc1)C(O)(CCN(C)C)c1cccc2ccccc12` (mixture of isomers): more than 10 µM.
As to `COc1ncc(-c2ccccc2F)cc1C(c1ccccc1)C(O)(CCN(C)C)c1cccc2ccccc12` (configuration not stated), in experiment [3], the inhibition at 1 µM amounted to 0%. The inhibition at 10 µM in experiment [4] is 100%. In addition, in experiment [1], the MIC90 was found to be 2.6 µM (≈ 1.35 µg/mL).
The like results for `COc1ncc(-c2cccc(Cl)c2)cc1C(c1ccccc1)C(O)(CCN(C)C)c1cccc2ccccc12` (configuration not stated) were, in that order, 5%, 100% and 7.94 µM (≈ 4.26 µg/mL).
The like results for `COc1ncc(-c2ccc(C(C)(C)C)cc2)cc1C(c1ccccc1)C(O)(CCN(C)C)c1cccc2ccccc12` (configuration not stated) were, in that order, 90%, 100% and 3.09 µM (≈ 1.73 µg/mL).
As for `COc1nc(OC)c(C(c2ccccc2)C(O)(CCN(C)C)c2cccc3ccccc23)cc1-c1ccc(C#N)cc1` (configuration not stated), the MIC90 in experiment [1] was determined as 1.24 µM (≈ 0.692 µg/mL).
As for `COc1ncc(-c2ccc(F)c(C)c2)cc1C(c1ccccc1)C(O)(CCN(C)C)c1cccc2ccccc12` (configuration not stated), the inhibition at 1 µM in experiment [3] came to 5%. Also, the inhibition at 10 µM in experiment [4] worked out at 100%.
As for `COc1nc(OC)c(C(c2ccccc2)C(O)(CCN(C)C)c2cccc3ccccc23)cc1-c1ccc(F)cc1` (configuration not stated), in experiment [1], the MIC90 was 2.41 µM (≈ 1.33 µg/mL).
Same read-out and setting: under `COc1nc(OC)c(C(c2ccccc2)C(O)(CCN(C)C)c2cccc3ccccc23)cc1-c1ccc(OC(F)(F)F)cc1` (configuration not stated) stands 2.34 µM (≈ 1.44 µg/mL).
Regarding `CO[C@H]1/C=C/O[C@@]2(C)Oc3c(C)c(O)c4c(O)c(c(/C=N/N5CCN(C)CC5)c(O)c4c3C2=O)NC(=O)/C(C)=C\C=C\[C@H](C)[C@H](O)[C@@H](C)[C@@H](O)[C@@H](C)[C@H](OC(C)=O)[C@@H]1C` [RIFAMPIN], in experiment [1], the MIC90 was 0.006 µM (≈ 0.00494 µg/mL).
In the case of `COc1ncc(-c2ccccc2C#N)cc1C(c1ccccc1)C(O)(CCN(C)C)c1cccc2ccccc12` (configuration not stated), the inhibition at 1 µM in experiment [3] stood at 0%. The inhibition at 10 µM in experiment [4] is 90%.
Regarding `COc1nc(OC)c([C@H](c2ccccc2)[C@](O)(CCN(C)C)c2cccc3ccccc23)cc1-c1ccc(C#N)cc1`, the MIC90 in experiment [1] stood at 8 µM (≈ 4.46 µg/mL).
As for `COc1nc(OC)c(C(c2ccccc2)C(O)(CCN(C)C)c2cccc3ccccc23)cc1-c1ccccc1` (configuration not stated), the MIC90 in experiment [1] was 3.88 µM (≈ 2.07 µg/mL).
With `COc1ncc(-c2cccc3ccccc23)cc1C(c1ccccc1)C(O)(CCN(C)C)c1cccc2ccccc12` (configuration not stated), the inhibition at 1 µM in experiment [3] stood at 5%. For the same compound, the inhibition at 10 µM in experiment [4] came to 100%.
The matching figures for `COc1ncc(-c2ccc(C)c(Cl)c2)cc1C(c1ccccc1)C(O)(CCN(C)C)c1cccc2ccccc12` (configuration not stated): 5% and 100%.
Regarding `COc1ncc(-c2ccc(C(F)(F)F)cc2)cc1C(c1ccccc1)C(O)(CCN(C)C)c1cccc2ccccc12` (configuration not stated), in experiment [3], the inhibition at 1 µM came out at 5%. Moreover, the inhibition at 10 µM in experiment [4] turned out to be 100%. For the same compound, the MIC90 in experiment [1] was determined as 4.26 µM (≈ 2.43 µg/mL).
For the compound `COc1ncc(-c2cccc(F)c2)cc1C(c1ccccc1)C(O)(CCN(C)C)c1cccc2ccccc12` (configuration not stated), the inhibition at 1 µM in experiment [3] came to 5%. In addition, the inhibition at 10 µM in experiment [4] came out at 100%. In addition, the MIC90 in experiment [1] turned out to be 2.51 µM (≈ 1.31 µg/mL).
